From patent publication US20260014125A1, “BICYCLIC-TYPE MAT2A INHIBITOR AND USE THEREOF” (HAIHE BIOPHARMA CO., LTD., priority 2022, published 2026)

How the values were obtained:
[1] = test system: human B-cell lymphoma DOHH-2 cell subcutaneous xenograft tumor; assay: In vivo anti-tumor efficacy in the DOHH-2 cell subcutaneous xenograft tumor model; parameters: species or system mice; conditions: DOHH-2 xenograft; for T/C (%) / TGI (%): intragastric, female CB-17 SCID mice
Experimental: The in vivo anti-tumor efficacy of compound 13 and AG-270 (MAT2A inhibitor,
were evaluated using a human B-cell lymphoma DOHH-2 cell subcutaneous xenograft tumor model.
The female CB-17 SCID mice used were purchased from Beijing Vital River Laboratory Animal Technology Co., Ltd. Tumor cell culture and subcutaneous inoculation: Human B-cell lymphoma DOHH-2 cells (DSMZ) were cultured in vitro in RPMI-1640 medium containing 10% fetal bovine serum and 1% […], and incubated in a 5% CO2 incubator at 37° C. When the required number of cells was reached, the cells were collected, and counted. 0.2 mL (10×10^6) of DOHH-2 cells (with matrix gel added, volume ratio of 1:1) were subcutaneously inoculated into the right back of each mouse. When the average tumor volume reached 100-150 mm^3, random grouping would begin, with 5 mice in each group. The administration group (compound 13 or compound AG-270) was performed intragastric administration twice a day (dosage shown in Table 3), while the negative control group was performed intragastric administration using the same volume of blank solvent per day.
The experimental indicator was to examine whether tumor growth was inhibited, delayed, or cured. The tumor diameter was measured twice a week using a vernier caliper. The formula for calculating tumor volume was: V=0.5a×b^2, wherein a and b indicated the long and short diameters of tumors, respectively.
The anti-tumor efficacy of the compound was evaluated using TGI (%) or relative tumor proliferation rate T/C (%).
TGI (%) reflects the tumor growth inhibition rate. Calculation of TGI (%). TGI (%)=[(1−(average tumor volume at the end of administration in the treatment group-average tumor volume at the beginning of administration in the treatment group))/(average tumor volume at the end of treatment in the negative control group-average tumor volume at the beginning of treatment in the negative control group)]×100%.
Relative tumor proliferation rate TIC (%): The calculation formula was as follows: T/C %=TRTV/CRTV×100% (TRTV: administration group RTV: CRTV: negative control group RTV). The calculation formula of the relative tumor volume (RTV) was RTV=Vt/V0, wherein V0 was the average tumor volume measured at the time of group administration (i.e. d0), Vt was the average tumor volume measured at a certain measurement, and TRTV and CRTV took the same day's data.

MAT2A = MAT2A (Homo sapiens (Human), UniProt P31153); assay: Biochemical test: inhibition of MAT2A enzyme activity (phosphate detection, OD620); conditions: MAT2A his-tag; 150 minutes enzymatic reaction
Source text: Experimental principle: MAT2A can catalyze the conversion of L-methionine and ATP into SAM, inorganic phosphate, and inorganic diphosphate. By adding a chromogenic reagent to the enzymatic reaction system, the content of inorganic phosphates in a sample can be quantitatively detected, thereby characterizing the enzymatic activity of MAT2A.
Experimental material: Tris (Life Science #0497); BSA (Sigma #); MAT2A his-tag (BPS #71401-1); 384 well plate (Corning #3765); L-methionine (Admas #1100469); ATP (Sigma #A7699); MgCl2 (Sigma #M8266); KCl (Sigma #7447-40-7); Brij35 (Sigma #B4184); EDTA (Sigma #E1644)
1. 1×Assaybuffer (buffer composition: Tris, KCl, MgCl2, BSA, Brij35, and EDTA; the solvent was ultrapure water) was prepared. MAT2A his-tag enzyme solution (containing 1.3 μL of MAT2A enzyme and 998.7 μL of 1×Assaybuffer per 1000 μL) and substrate mixed solution (containing 5 μL of ATP, 1.3 μL of L-methionine, and 993.7 μL of 1×Assaybuffer per 1000 μL) were prepared using 1×AssayBuffer.
2. Preparation of compound concentration gradient: The test compound was tested with a starting concentration of 10 μM, and 10 equimolar concentrations were set according to a 3-fold dilution. Specifically, firstly, the compound was diluted into 10 different concentrations of series solutions in a 384 well plate (with final detection concentrations of 10, 3.33, 1.11, 0.37, 0.123, 0.041, 0.0137, 0.0046, 0.0015, and 0.0005 μM), and then 250 nL of the above series solutions was transferred to the 384 well reaction plate using an ultrasonic pipetting system Echo550 for later use. 250 nL of 100% DMSO was added into a negative control well and a positive control well, respectively. Double well test.
3. 15 μL of MAT2A his-tag enzyme solution was added into both the compound well and the positive control well; and 15 μL of 1×Assaybuffer was added into the negative control well.
4. The 384 well plate reaction plate was centrifuged at 1000 rpm for 60 seconds, shaken, mixed well, and incubated for 15 minutes. 10 μL of substrate mixed solution was added into each experimental well of the 384 well reaction plate to initiate the reaction.
5. The 384 well reaction plate was centrifuged at 1000 rpm for 60 seconds, shaken, mixed well, and incubated for 150 minutes.
6. 50 μL of enzyme reaction termination solution Biomol was added into all experimental wells of the 384 well reaction plate to terminate the reaction, centrifuged at 1000 rpm for 60 seconds, and incubated for 15 minutes. OD620 was read and data was processed.
Data analysis: the inhibition rate (%) of the compound was calculated and fitted to obtain the IC50 of the tested compound. Calculation method for compound inhibition rate: Compound inhibition rate (%)=(OD620_max−OD620_stample)/(OD620_max−OD620_min)×100, wherein OD620_stample was the absorbance value of the sample well; OD620 min was the absorbance value of the positive control well, indicating the reading of the wells without enzyme activity; and OD620_max was the absorbance value of the negative control well, indicating the reading of the well without compound inhibition.

KP-4 cells = assay: Human pancreatic cancer KP-4 cell activity inhibition test (CellTiter-Glo); assay type: cell-based; conditions: Homo sapiens, 120 h, 5 days
Experimental: Experimental principle: after co-incubating the MAT2A inhibitor to be tested with KP-4 cells for a period of time, a cell viability measurement method based on ATP content is used to characterize the effect of the tested compound on cell viability.
Experimental material: KP-4 cells (JCRB #JCRB0182); IMDM (Gibco 912440061); fetal bovine serum (EXCELL #FND500); penicillin-streptomycin (Gibco #15140-122); 0.25% Typsin-EDTA (Gibco #252(101-072); DMSO (Sigma #D2650); 96 well plate (Corning #3610); CellTiter-Glo (Promega #G7571)
1. KP-4 cells were cultured in IMDM culture medium containing 10% e fetal bovine serum and 1% penicillin-streptomycin at 37° C. and 5% CO2 in a cell culture incubator. Only cells in logarithmic growth phase were used for subsequent experiments.
2. The cells in logarithmic growth phase were inoculated into a 96 well plate, with a seeding quantity of 500 cells per well, and incubated overnight in a cell culture incubator at 37′C and 5% CO2.
3. The compound was dissolved with DMSO, diluted with culture medium to 10 different concentrations (approximately […]), 3333.3, 1111.1, 370, 123, 41.2, 13.7, 4.6, 1.5, and 0.5 nM) before adding it to the cell plate, and cultured at 37° C. and 5% CO2 for 5 days.
4. CellTiter-Glo reagent was added, and an enzyme-linked immunosorbent assay reader was used to detect cell viability.
Data analysis: the inhibition rate (%) of the compound was calculated and fitted to obtain the IC50 of the tested compound. Calculation method for compound inhibition rate: Compound inhibition rate (%)=(Signal_max−Signal_sample)/(Signal_max−Signal_min)×100, wherein Signal_sample was the sample well reading, indicating the cell activity of the compound inhibition well; Signal_min was the positive control well reading, indicating the background activity without cells; and Signal_max was the negative control well reading, indicating the cell activity of the well without compound inhibition.

Sequence of MAT2A (P31153 whole entry): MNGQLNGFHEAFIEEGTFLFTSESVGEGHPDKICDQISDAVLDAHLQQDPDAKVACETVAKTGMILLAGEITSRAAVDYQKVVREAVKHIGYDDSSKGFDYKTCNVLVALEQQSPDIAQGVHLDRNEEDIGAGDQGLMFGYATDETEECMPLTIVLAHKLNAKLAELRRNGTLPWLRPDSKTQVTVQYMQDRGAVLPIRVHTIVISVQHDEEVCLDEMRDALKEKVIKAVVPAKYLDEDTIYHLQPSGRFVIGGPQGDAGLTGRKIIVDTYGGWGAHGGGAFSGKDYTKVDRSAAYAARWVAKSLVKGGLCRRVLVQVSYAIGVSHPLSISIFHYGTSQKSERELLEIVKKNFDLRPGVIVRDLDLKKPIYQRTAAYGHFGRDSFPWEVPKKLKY

SMILES | IC50 (MAT2A) [nM] | IC50 (KP-4 cells) [nM] | also measured
COc1ccc(-c2c(Nc3ccccn3)[nH]c3c(C4=CCCCC4)c(-c4ccccc4)nn3c2=O)cc1 [AG-270, reference compound] | – | – | T/C (%) ([1]; 80 mg/kg, QD): 22.32%; TGI (%) ([1]; 80 mg/kg, QD): 82.92%
CCOc1c(-c2ccc(Cl)cc2)c(=O)n(-c2ccc3nn(C)cc3c2)c2[nH]ncc12 [Compound 13] | 15.1 | 7.4 | T/C (%) ([1]; 5 mg/kg, BID): 35.54%; TGI (%) ([1]; 5 mg/kg, BID): 68.82%; T/C (%) ([1]; 10 mg/kg, BID): 26.46%; TGI (%) ([1]; 10 mg/kg, BID): 78.48%; T/C (%) ([1]; 20 mg/kg, BID): 15.98%; TGI (%) ([1]; 20 mg/kg, BID): 89.67%; in vivo efficacy, in words ([1]; 5, 10, 20 mg/kg BID): dose-dependent in vivo efficacy
CCOc1c(-c2ccc(Cl)cc2)c(=O)n(-c2ccc3nn(C)cc3n2)c2nn(C)cc12 [Compound 109] | 23.2 | 128 | –
CCOc1c(-c2ccc(Cl)cc2)c(=O)n(-c2ccc3nn(CCN(C)C)cc3c2)c2[nH]ncc12 [Compound 111] | 17.5 | 62.8 | –
CCOc1c(-c2ccc(C)cc2)c(=O)n(-c2ccc3nn(C)cc3c2)c2[nH]ncc12 [Compound 117] | 17.2 | 23.7 | –
CCOc1c(-c2ccc(F)c(F)c2)c(=O)n(-c2ccc3nn(C)cc3c2)c2[nH]ncc12 [Compound 118] | 16 | 136 | –
Cn1cc2cc(-n3c(=O)c(-c4ccc(Cl)cc4)c(NCC4CC4)c4cn[nH]c43)ccc2n1 [Compound 123] | 11.7 | 3.7 | –
CCOc1c(-c2cnc(C(F)(F)F)nc2)c(=O)n(-c2ccc3nn(C)cc3c2)c2[nH]ncc12 [Compound 124] | 18 | 236 | –
CCOc1c(-c2ccc(OC)nc2)c(=O)n(-c2ccc3nn(C)cc3c2)c2[nH]ncc12 [Compound 126] | 12.6 | 38 | –
CCOc1c(-c2ccc(Cl)cc2)c(=O)n(-c2ccc3nn(C)nc3c2)c2[nH]ncc12 [Compound 127] | 12.4 | 8.9 | –
CCOc1c(-c2ccc(Cl)cc2)c(=O)n(-c2ccc3nnn(C)c3c2)c2[nH]ncc12 [Compound 128] | 8.6 | 1.2 | –
CCNc1c(-c2ccc(OC(F)F)cc2)c(=O)n(-c2ccc3nn(C)cc3n2)c2[nH]ncc12 [Compound 129] | 17.8 | 23.3 | –
CCOc1c(-c2ccc(Cl)cc2)c(=O)n(-c2ccc3nn(CCN(C)C)cc3n2)c2[nH]ncc12 [Compound 132] | 16.5 | 160 | –
CCOc1c(-c2ccc(Cl)cc2)c(=O)n(-c2ccc3nn(C)cc3c2)c2nn(C)cc12 [Compound 134] | 19.1 | 6.1 | –
CCOc1c(-c2ccc(Cl)cc2)c(=O)n(-c2ccc3nn(C)nc3n2)c2[nH]ncc12 [Compound 137] | 16.8 | 427 | –
CCOc1c(-c2ccc(Cl)cc2)c(=O)n(C2=NC3C(C=C2)N=NN3C)c2[nH]ncc12 (stereo not drawn) [Compound 141] | 16.7 | 146 | –
